# Earlier results in publication PMC7388056 (Biomacromolecules, 2020).
# Tested on: integrins
substance,measurement,value
arginine–glycine–aspartic acid [RGD],"effectiveness relative to parent proteins, in words",orders-of-magnitude less effective than its parent proteins
